Results: patent publication US20190167676A1, “METHODS FOR IMPROVING RESISTANCE TO SKELETAL MUSCLE FATIGUE” (Cytokinetics, Inc., priority 2012, published 2019)

What was measured:
fast skeletal myofibrils = target: T1, fast skeletal myofibrils (Homo sapiens, UniProt P02585); conditions: cited from earlier work
T1 construct: from tissue; host or cells: fast skeletal muscle myofibrils

rat EDL muscle = assay: Fatigue in rat EDL muscle in situ; assay type: in vivo
From the text: Rats were placed under anesthesia using isoflurane and the skin around the experimental leg was removed. The distal end of the EDL muscle and its associated tendon were then isolated. The rat was then placed on the platform of an Aurora in-situ muscle analysis rig (806C), maintained at body temperature via a circulating water system. The knee was immobilized in a clamp between two sharpened screws and the distal tendon cut and tied to the arm of a force transducer (Aurora Scientific, Ontario, Canada) using a silk suture. The muscle was stimulated directly via the peroneal nerve. For isolation of the nerve, a 1 cm incision was made at the upper thigh and the overlying gastrocnemius muscle was cut to expose an approximate 5 mm stretch of the peroneal nerve. […] Muscle contractile properties were assessed by applying an electrical current to the nerve and recording the force generated by the muscle via a servomotor. […]
With the rat in situ EDL muscle preparation described in Example 3, a fatiguing protocol was utilized where muscle was stimulated for 600 seconds. […] To elicit muscle fatigue, the EDL muscle was stimulated with 350 msec electrical trains every 3 seconds for ten minutes at a frequency producing an initial force equal to 50% of maximal (FMax50) as determined by the force-frequency relationship for each animal.

[1] = system: skinned fast skeletal muscle fibers from rabbit psoas muscle; conditions: cited from earlier work
[2] = target: T2, myofibrils from slow skeletal muscle (Homo sapiens, UniProt P63316); conditions: cited from earlier work
T2 construct: from tissue; host or cells: slow skeletal muscle myofibrils

[3] = Plasma concentrations, Phase II study; assay type: in vivo, human
healthy rats = assay: Treadmill running assay; assay type: in vivo, rat
Method: Male Sprague Dawley rats (Charles River), 10-12 weeks old, 250-400 g. Rats were acclimated for a minimum of 2 days and weight was measured weekly. The endurance capacity of rats was assessed using a progressive exercise test as previously described (A. Aaker et al. J Cardiovasc Pharmacol28: 353-362, 1996; B. Helwig et al. J Appl Physiol. 2003 June; 94(6):2225-36). After familiarization with the treadmill apparatus, rats were run at a treadmill speed of 30 meters per minute (m/min) with a 5% incline. Every 15 minutes, the treadmill speed was increased by 5 meters per minute and the rats continued to exercise until they reached the point of fatigue and were unable to continue exercising (FIG. 1A). Exercise time was measured in minutes while exercise distance was recorded in meters. Compound A was administered via oral gavage 2 hours prior to assessment. Each dose was formulated as a suspension containing 1% hydroxypropyl methylcellulose (HPMC), 0.2% Tween 80, and micronized Compound A, and dose volume was 5 ml/kg. Vehicle (0.2% Tween 80, 1% HPMC and water) was administered similarly.

[4] = system: patients with peripheral artery disease and claudication; assay: Safety and tolerability, Phase II study; assay type: in vivo, human
Method: This study was a double-blind, randomized, placebo-controlled, three-period cross-over, hypothesis generating Phase II study in patients with peripheral artery disease and claudication. […] Secondary objectives included (a) evaluation and characterization of the relationship, if any, between the doses and plasma concentrations of Compound A and its pharmacodynamic effects, and (b) evaluation of the safety and tolerability of Compound A administered as single doses.
Single doses of each of 375 mg Compound A, 750 mg Compound A and placebo were administered in random order with a 6 to 10 day wash out between each dose. […] Assessments include 1) Bilateral Heel Raise Test (as described below) using electrogoniometry at 3 and 6 hours after dosing, and 2) 6-Minute Walk Test at 4 hours after dosing. Results were analyzed using a repeated-measures ANCOVA with treatment, sequence, period, baseline, and patient in the model. In the event of model assumption violations, non-parametric methods were utilized

rat FDB muscle = assay: Isometric tension force/frequency in rat FDB muscle in vitro; conditions: 10 μM, FIG. 1
Method: Adult male Sprague-Dawley rats (Charles River) between 250 and 300 g were anesthetized with a mixture of isoflurane gas and oxygen and quickly euthanized by cardiac excision. Hind feet were quickly removed at the ankle and placed in oxygenated Krebs solution at 4° C. (composition: 1 mM NaH2PO4, 5 mM KCl, 2 mM CaCl2, 1 mM MgSO4, 137 mM NaCl, 11 mM glucose and 1 mM NaHCO3). Feet were then pinned out in fresh oxygenated Krebs buffer at room temperature and the skin from the sole of the foot removed with scissors. In rats, a small branch of the main flexor digitorum brevis (FDB) muscle extends from the heel of the foot to the little digit. This was dissected free with small scissors and the tendons at each end of the muscle were cut. The muscle was pinned out in Krebs solution and the surrounding fascia removed. Silk thread was tied with a small loop and then knotted on to the end of each tendon, creating a silk loop at each end of the muscle. This was then hooked on to the fixed lever arm and force transducer of an 801A in vitro analysis system (Aurora Scientific, Ontario, Canada) and perfused with Krebs solution at 30° C.
The effect of 10 μM of Compound A on the force/frequency relationship was measured.

healthy female rats = assay: Cage grid hang time; assay type: in vivo, rat
Method: Static fatigue in conscious rats was assessed by measuring the length of time that healthy female rats would hang upside down from a cage grid. Rats were trained to hang upside-down from a cage grid and the time to drop to soft padding below was recorded. Baseline hang-times were recorded for each animal (n=24) for a two week period of time. The rats were then treated with Compound A (200 ppm) in chow for two weeks while hang times were monitored daily. Finally, the rats were withdrawn from Compound A in their chow for five days while hang times were recorded daily.

[5] = 10 mg/kg oral gavage 2 hours prior
[6] = 20 mg/kg oral gavage 2 hours prior
[7] = 200 ppm in chow, average final three days of two week dosing
[8] = after withdrawal, average final three days of five day period

T1 sequence (P02585 whole entry): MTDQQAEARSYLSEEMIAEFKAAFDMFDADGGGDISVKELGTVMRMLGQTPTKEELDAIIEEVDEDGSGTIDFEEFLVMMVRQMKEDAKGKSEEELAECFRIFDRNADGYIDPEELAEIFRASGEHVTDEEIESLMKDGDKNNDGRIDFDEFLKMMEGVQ
T1 sequence (P48788 whole entry partner): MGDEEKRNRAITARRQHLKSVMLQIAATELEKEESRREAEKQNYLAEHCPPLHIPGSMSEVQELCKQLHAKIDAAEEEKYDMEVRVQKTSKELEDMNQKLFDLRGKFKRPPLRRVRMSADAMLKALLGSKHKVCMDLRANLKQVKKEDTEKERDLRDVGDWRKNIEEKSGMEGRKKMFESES
T1 sequence (P45378 whole entry partner): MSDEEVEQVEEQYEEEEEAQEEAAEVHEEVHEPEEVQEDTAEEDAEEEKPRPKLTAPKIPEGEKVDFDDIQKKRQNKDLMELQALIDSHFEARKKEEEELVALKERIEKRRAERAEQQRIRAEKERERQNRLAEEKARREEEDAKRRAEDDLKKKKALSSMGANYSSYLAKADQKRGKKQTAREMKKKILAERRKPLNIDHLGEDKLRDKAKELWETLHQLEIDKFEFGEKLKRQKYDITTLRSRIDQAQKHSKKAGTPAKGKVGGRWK

Compound: C#Cc1cnc2nc(O)n(C(CC)CC)c2n1 [Compound A, 6-ethynyl-1-(pentan-3-yl)-1H-imidazo[4,5-b]pyrazin-2-ol]
- myosin ATPase relationship to Ca2+ concentration (fast skeletal myofibrils): leftward-shift
- average stimulation frequency for force production similar to pre-dose (rat EDL muscle; 1 mg/kg via duodenal cannula, vehicle 30 Hz): approximately 26 Hz
- EDL muscle fatigue (rat EDL muscle; 1 mg/kg, 600 seconds protocol, FIG. 4): decreased rat EDL muscle fatigue in situ
- force-calcium relationship [1]: leftward-shift of the force-calcium relationship
- effect in myofibrils [2]: little or no effect
- mean plasma concentrations vs dose ([3]; 375, 500, 750 mg single doses): relatively dose proportional increases
- mean plasma concentrations over 24-hour observation period ([3]; even at the 375 mg dose): remained within the pharmacologically active range
- Distance (m) Mean ± SEM (healthy rats; [5]): 1972 ± 176 m
- Time (Min) Mean ± SEM (healthy rats; [5]): 60.7 ± 4.2 min
- Distance (m) Mean ± SEM (healthy rats; [6]): 1943 ± 205 m
- Time (Min) Mean ± SEM (healthy rats; [6]): 59.4 ± 4.7 min
- increase in treadmill running time over baseline (healthy rats; 10 and 20 mg/kg): 20%
- increase in treadmill running time over vehicle control (healthy rats; 10 and 20 mg/kg): 50%
- adverse events ([4]; 750 mg single dose): adverse events in two patients
- adverse events vs dose ([4]; single doses 375-750 mg): Dose related adverse events, particularly dizziness and others related to walking
- sub-maximal force development (force/frequency relationship) (rat FDB muscle): increased sub-maximal force development
- grid hang time (healthy female rats; [7]): 899 ± 157 s
- grid hang time compared to baseline (healthy female rats; [7]): 160±18%
- grid hang time (healthy female rats; [8]): 698 ± 122 s
- grid hang time, normalized performance (healthy female rats; [8]): 124±12%
